Usually IC50 stands for the concentration at which inhibition is half-maximal.

The results in this text go back to article PMC12561453, “Synthesis and Structure–Activity Relationship Study of 2-(amino)quinazolin-4(3H)-one Derivatives as Potential Inhibitors of Methicillin-Resistant Staphylococcus aureus (MRSA)” (Antibiotics, 2025).

In brackets after ≈: the same amount, converted by molar mass. Where two headings read alike, the source gives them in different places.

Data set [1] concerns S. aureus USA300 JE2 expressing GFP in H460 cells. In words: microbe, parasite or virus in culture. The data set is classed as cell-based, Staphylococcus aureus. The settings on record: for MIC50: Staphylococcus aureus, USA300, 24 h, read-out: H460 Assay MIC50 (MIC50 ex vivo). The source says: Staphylococcus aureus, including MRSA, can invade host cells and replicate intracellularly, which complicates treatment with current therapies. To evaluate the intracellular antibacterial activities of the selected compounds, the fifteen compounds tested for cytotoxicity were further assessed using a cell infection model based on H460 human lung epithelial cells, which mimic MRSA-mediated pneumonia. H460 cells were infected with the USA300 JE2 expressing green fluorescent protein (GFP) and subsequently treated with the compounds in a dose–response manner, along with three reference antibiotics: vancomycin, linezolid, and erythromycin. After 24 h of incubation, bacterial loads were quantified by measuring GFP fluorescence in each well. MIC50 values determined in the H460 infection model (MIC50 ex vivo) were generally higher than those obtained from the in vitro tests, likely due to either limited compound penetration into host cells or reduced antibacterial effect of the compounds against intracellular bacteria (Figure 3, Table 2). […] These findings underscore the potential of compound 6y as a promising lead for further development as a novel antistaphylococcal agent.
To see the ex vivo antimicrobial activity of the compound, the human lung carcinoma cell line H460 (ATCC #HTB-177) was used. The H460 cells were cultured in RPMI 1640 medium with 10% fetal bovine serum (FBS) and in a 96-well microplate at 37 °C and 5% CO2. Cell lines were cultured for 2 days, until they reached full confluence in the well. S. aureus (USA300-containing and pCM29-encoding GFP) was cultured in CAMHB with 10 µg/mL of chloramphenicol, and bacterial cells were harvested. After washing the bacterial cells with phosphate-buffered saline (PBS) and suspending them in RPMI, infected H460 cells with S. aureus (1 × 10^7 CFU) and incubated them for 2.5 h. Samples were washed three times with PBS. Then, cells were treated with gentamicin (50 µg/mL of gentamicin in RPMI) and incubated for 1 h. Samples were washed with PBS, RPMI-containing diluted compounds were added, and then they were incubated at 37 °C in 5% CO2 for 24 h. To detect the Green fluorescent protein (GFP) signal, an Ensight multimode plate reader and Opera Phenix Plus (Revvity, Waltham, MA, USA) were used.
Ex vivo infection model images were generated using the Opera Phenix Plus high-content imaging system. Images were obtained by a confocal microscope with a 20× water objective lens. To detect the bacteria fluorescence signal (GFP), the Alexa 488 channel (488 nm laser/500–550 filter, Thermo Fisher Scientific, Waltham, MA, USA) was used, and the brightfield channel was used for H460 cell images.
Figure 3 Antibacterial activities of 2-(amino)quinazolin-4(3H)-one derivatives in the H460 infection model. H460 cells were infected with S. aureus USA300 JE strain expressing GFP, followed by treatment with serial dilutions of 2-(amino)quinazolin-4(3H)-one derivatives. After incubation at 37 °C for 24 h with 5% CO2, fluorescence signals of the bacteria were detected at 488 nm/510 nm using a multilabel plate reader.

For a further data set, the system named is HepG2 cells. In words: In vitro cytotoxicity, HepG2 viability (resazurin). The data set is classed as cell-based, human. The settings on record: HepG2 cells, 24 h, resazurin, read-out: HepG2 IC50. As to the method: The in vitro cytotoxicity of the compounds was evaluated by measuring the viability of HepG2 cells, a human liver cell line, following treatment in a dose–response manner, as previously described. […] The efficacy window was calculated as the ratio of IC50 in HepG2 cells to MIC50 against JE2.
To test cytotoxicity with compounds, the human liver cell line HepG2 (ATCC #HB-8065) was used for the assay. HepG2 was cultured in DMEM with 10% fetal bovine serum (FBS) in a 96-well microplate at 37 °C and 5% CO2. HepG2 cells were seeded at a final density of 5 × 10^4 cells/well, and DMEM-containing diluted compounds were added and incubated on the plates at 37 °C in 5% CO2 for 24 h. After that, resazurin (final concentration, 0.1 mg/mL) was added to each well and incubated on the plates at 37 °C in 5% CO2 for 2 h. To detect the fluorescence at 530 nm excitation and 590 nm emission, an Ensight multimode plate reader was used (Revvity, Waltham, MA, USA).
A general note: Resazurin is reduced to fluorescent resorufin, in cell work by metabolically active cells.

Data set [2] is described as follows: Cytotoxicity in NIH 3T3 cells. The class given is cell-based. The settings on record: mouse, NIH 3T3 cells (embryonic fibroblast cell line). The procedure:
Table S1. Results of hERG binding assay and cytotoxicity of 6l and 6y
Compound hERGa CytotoxicityVERO HFL-1 L929 NIH 3T3 CHO-K1
a % inhibition at 10 μM concentrations. b IC50 values in various mammalian cell lines. […]

Data set [3] in a line: Microsomal stability, rat. The data set is classed as in vitro ADME. As to conditions: rat microsomes. As to the method:
Table S2. Result of microsomal stability, plasma protein binding rate, and CYP inhibition of 6l and 6y
Compound MSa PPBrat human rat human 1A2 2C9 2C19 2D6 3A4
a % of remaining after 30 min. b plasma protein binding rate (%) at 5 μM concentrations. c % of CYP
inhibition in human liver microsomes at 10 μM concentrations. […]

As for `O=c1[nH]c(Nc2cc(Cl)cc(Cl)c2)nc2cc(Cl)ccc12` [6l, 7-Chloro-2-((3,5-dichlorophenyl)amino)quinazolin-4(3H)-one], the MIC50 in data set [1] is 12.1 µM (≈ 4.12 µg/mL). The IC50 in the data set with HepG2 cells is 62.2 µM; with HepG2 cells (Homo sapiens, HepG2, 24 h) it was 62 µM; in data set [2], > 100 µM. In data set [3], the “MS rat, % of remaining after 30 min” value is given as 104.7%.
As to `O=c1[nH]c(NCc2ccc(F)c(F)c2)nc2cc(Cl)ccc12` [6y, 7-Chloro-2-((3,4-difluorobenzyl)amino)quinazolin-4(3H)-one], the “distortion of H460 cell morphology (in words)” value in data set [1] (6.25 µM, brightfield images, 24 h) is “relatively minimal distortion of H460 cell morphology”. Moreover, in data set [1] (6.25 µM, confocal images, 24 h), the “bacterial load in infected H460 cells (in words)” value is “markedly reducing the bacterial load”. Besides, the “H460 Assay MIC50 (MIC50 ex vivo)” value in data set [1] (H460 cells infected with USA300 JE2-GFP, 24 h, GFP fluorescence) came to 1.9 µM. Besides, the MIC50 in data set [1] was found to be 1.9 µM (≈ 0.611 µg/mL). The IC50 with HepG2 cells (Homo sapiens, HepG2, 24 h) came out at 20.2 µM; in data set [2], 62 µM. Besides, the “MS rat, % of remaining after 30 min” value in data set [3] worked out at 53.8%.
